Literature values, collected in patent US20130102943A1, “RELOADABLE FINISHES FOR TEXTILES AND FORMULATIONS FOR LOADING SUCH FINISHES” (SCHOELLER TEXTIL AG, priority 2009, published 2013).

Tested on: gram-negative and gram-positive bacteria, as well as yeasts and molds

CCCCCCCCCCCC(=O)N[C@@H](CCCNC(=N)N)C(=O)OCC.Cl [Lauroyl arginate, Ethyl-N-alpha-lauroyl-L-arginate HCl]
antimicrobial effectiveness: effective
